Laboratory results published in patent publication US12691105B2, “Compositions containing nicotinamide and vitamin B6 and methods of using such compositions for treating cachexia or precachexia” (SOCIETE DES PRODUITS NESTLE S.A., priority 2020, dated 2026).

Key:
Human primary myoblasts = assay: Myogenic amplification and commitment of muscle stem cells (Pax7/MyoD staining); assay type: cell-based; conditions: dose response, donors 1 and 2 pooled, 96 hours, control DMSO 1%; for proportion of MyoD+ cells (normalized to total cell number, fold change compared to control): FIG. 1B/2B
Procedure: Human Skeletal Muscle Myoblasts were purchased from Lonza (https://bioscience.lonza.com). These cells were isolated from the upper arm or leg muscle tissue of normal donors and used after the second passage. Several donors were tested to ensure cell viability and purity before selecting the final donors, which are a person (refer thereafter as Donor 1), a person (refer thereafter as Donor 2) and a person (refer thereafter as Donor 3). Human primary myoblasts were seeded in 384 well plates at a density of 1′000 cells per well in skeletal muscle growth medium (SKM-M, AMSbio). For treatment, compounds were directly added to the myoblast cultures 16 hours after initial plating. All cultures were then grown for 96 hours. Cells were stained for Pax7 and MyoD expression using antibodies directed against Pax7 and MyoD and counterstained with Hoechst 33342 to visualize cell nuclei. Pax7+ cells are defined as cells that express Pax7 regardless of MyoD expression. […] Image acquisition was performed using the ImageXpress (Molecular Devices) platform. Custom module analysis based on Multi-Wavelength Cell Scoring of the MetaXpress software was used for quantification. *, **, ***, **** indicates difference from the control, One-way ANOVA, with p<0.05, p<0.01, p<0.001, p<0.0001, respectively. Data are presented as Mean+/−SEM Human primary myoblasts from different donors (donor 1, donor 2 or donor 3) were seeded in 384 well plates at a density of 1′000 cells per well in skeletal muscle growth medium (SKM-M, AMSbio). For treatment, compounds were directly added to the myoblast cultures 16 hours after initial plating. All cultures were then grown for 96 hours. Cells were stained for Pax7 and MyoD expression using antibodies directed against Pax7 and MyoD and counterstained with Hoechst 33342 to visualize cell nuclei. Pax7+ cells are defined as cells that express Pax7 regardless of MyoD expression. […] Custom module analysis based on Multi-Wavelength Cell Scoring of the MetaXpress software was used for quantification. […] Data are expressed as number of cells per arear of injured muscle.

[1] = system: PC-3 cell line (prostate adenocarcinoma); assay: Safety of compounds as non-oncogenic: cancer cell proliferation, PC-3; assay type: cell-based, human; conditions: FIG. 7A, serum and FGF positive controls
Procedure: (§1) The safety of the compounds was tested in two different human cancer cell lines purchased from ATCC. FIG. 7A cell line PC-3 was of prostate/adenocarcinoma from a person, and FIG. 7B cell line PANC-1 was from a pancreatic duct epitheloid carcinoma from a person. Serum and FGF (Fibroblast Growth Factor) conditions were used as positive controls. *, **, ***, **** indicates difference from the control, One-way ANOVA, with p<0.05, p<0.01, p<0.001, p<0.0001, respectively. Data are presented as Mean+/−SEM.
(§2) The safety of the compounds were tested in two different human cancer cell lines purchased from ATCC. Serum and FGF (Fibroblast Growth Factor) conditions were used as positive controls. *, **, ***, **** indicates difference from the control, One-way ANOVA, with p<0.05, p<0.01, p<0.001, p<0.0001, respectively. Data are presented as Mean+/−SEM.
Cell line PC-3 of prostate/adenocarcinoma from a person (FIG. 7A)

[2] = system: PANC-1 cell line (pancreatic duct epitheloid carcinoma); assay: Safety of compounds as non-oncogenic: cancer cell proliferation, PANC-1; assay type: cell-based, human; conditions: FIG. 7B, serum and FGF positive controls
Procedure: as §1, §2
Cell line PANC-1 was from a pancreatic duct epitheloid carcinoma from a person (FIG. 7B).

Row | SMILES | proportion of Pax7+ cells (normalized to total cell number, fold change compared to control) (Human primary myoblasts; FIG. 1A) | proportion of MyoD+ cells (normalized to total cell number, fold change compared to control) (Human primary myoblasts) | proliferation of cancer cells [1] | proliferation of cancer cells [2]
1 | NC(=O)c1cccnc1 [Nicotinamide] | increasing the proportion of both amplifying (Pax7+) and differentiating (MyoD+) cells in a dose dependent manner | increasing the proportion of both amplifying (Pax7+) and differentiating (MyoD+) cells in a dose dependent manner | no effect on the proliferation of cancer cells | no effect on the proliferation of cancer cells
2 | Cc1ncc(CO)c(CO)c1O [Pyridoxine] |  | increasing the proportion of differentiating (MyoD+) cells in a dose dependent manner | no effect on the proliferation of cancer cells | no effect on the proliferation of cancer cells
